Source: PubChem BioAssay AID1241 (SRMLSC, 2008)

Test: compounds inducing NF-kB luciferase expression – cell-based, SH-SY5Y, dose response (AID 1241)
Conditions: SH-SY5Y NF-kB promoter luciferase reporter, fold induction; call rule not given here

EC50, active:
Cn1cccc1/C=C1\CCC/C(=C\c2cccn2C)C1=O 8.63 µM
O=C(Nc1ccon1)c1cc2c(s1)CCCC2 4.13 µM
O=C(Nc1ccc(N2CCOCC2)c(Cl)c1)c1cccc(F)c1 8.6 µM
O=C(Nc1ccc(Cl)c(Cl)c1)Nc1ccccc1C(=O)O 1.67 µM
Cc1ccccc1OCC(=O)Nc1cccc(C(=O)O)c1 4.05 µM
Nc1nc(-c2ccc(-c3ccccc3)cc2)cs1 2.42 µM
O=C(CSc1nnnn1-c1ccccc1)Nc1nsc(-c2ccccc2)n1 14.2 µM
Cc1ccc(-c2noc(-c3ccccc3F)n2)cc1 6.83 µM
CC(C)c1ccc(/C=N/NC(=O)c2cccc(Cl)c2)cc1 28.8 µM
Cc1ccnc(NC(=O)/C=C/c2ccccc2Cl)c1 10.4 µM
Cc1ccc2nc(-c3ccc(NC(=O)COC(=O)c4ccc(Br)o4)cc3)sc2c1 0.485 µM
O=C(Nc1ccc(F)cc1)/C(Cl)=C/c1ccccc1 23.4 µM
COc1cccc(CNc2ccc(Br)cn2)c1O 3.9 µM
O=C(COc1ccc2ccccc2c1)Nc1nccs1 0.776 µM
Brc1ccccc1/C=N/Nc1ccc2ccccc2n1 5.5 µM
Cc1nn(-c2nc3ccccc3s2)c(N)c1-c1ccccc1 9.75 µM
Oc1cccc(/C=N/Nc2cccc3cccnc23)c1 1.35 µM
C(=N\Nc1ncnc2ccccc12)/c1ccccc1 4.03 µM
CN1/C(=C\C(=O)c2cccs2)Sc2ccccc21 1.28 µM
Brc1ccccc1-c1nc(-c2ccccc2)no1 2.08 µM
Cc1ccc(C(=O)C(C)OC(=O)c2ccccc2[N+](=O)[O-])cc1 (stereo not given) 9.08 µM
Cc1ccc(C(=O)c2sc3nsc(C)c3c2N)cc1 2 µM
Cc1ccc(NC(=O)c2cc3ccccc3o2)cc1S(=O)(=O)N(C)C 2.04 µM
COc1ccc(-c2nnc(SCc3ccccc3F)o2)cc1 3.89 µM
O=C(Nc1cccc(O)c1)c1noc2c1CCc1ccccc1-2 0.426 µM
Cn1c(C(=O)Nc2ccc3c(c2)OCCO3)cc2sccc21 1.17 µM
Nc1ccc(-c2nc3ccc(C(=O)O)cc3s2)cc1 0.146 µM
O=C(NCc1cccnc1)c1ccc([N+](=O)[O-])o1 2.81 µM
Cc1ccc(-c2cnc3c(Cl)c(C)nn3c2)cc1 11.5 µM
O=C(Nc1ccc2ccccc2c1)c1onc2c1CCCC2 0.632 µM
Cc1cc(C(=O)Nc2cccc(C(=O)O)c2)oc1C 29.8 µM
Cc1csc(NC(=O)c2ccc(C)c([N+](=O)[O-])c2)n1 2.12 µM
Cc1ccc(-c2nnc(SCc3ccccc3F)o2)cc1 4.63 µM
CCN(CC)c1ccc(/C=N/NC(=O)c2ccco2)cc1 4.28 µM
Cc1ccsc1C(=O)OCc1csc(-c2ccccc2)n1 1.54 µM
Cc1ccccc1C(=O)O/N=C1\CCS(=O)(=O)c2sccc21 3.87 µM
CCOc1ccc2nc(-c3ccccc3)[nH]c2c1 1.14 µM
O=C(/C=C/Nc1cccc(O)c1)c1ccccc1 2.1 µM
Oc1ccccc1-c1cc(-c2ccccc2)no1 1.79 µM
Cc1c(C(=O)Nc2nc3ccccc3[nH]2)oc2ccccc12 1.38 µM
CCCCCCOc1ccc(OC(=O)c2cccnc2)cc1 0.189 µM
Cc1ccc(NC2=Nc3ccccc3CS2)cc1 1.34 µM
COc1cc(/C=N/O)ccc1OCc1ccc([N+](=O)[O-])cc1 1.69 µM
Oc1ccc(/C=N/Nc2cccc3cccnc23)c(O)c1 2.95 µM
O=C(Nc1ccc2c(c1)OCO2)c1ccc(Cl)s1 1.8 µM
Cc1cc(C(=O)Nc2nc3c(s2)CCCC3)cs1 1.63 µM
Fc1ccccc1N1CCN(c2cnc3ccccc3n2)CC1 3.33 µM
CNc1nc(-c2ccc3c(c2)CCN3C(=O)c2ccccc2F)cs1 2.66 µM
Cc1ccc2oc(-c3cccc(N)c3)nc2c1 0.66 µM
Clc1cccc(-c2nnc(-c3ccccc3)o2)c1 1.67 µM
COc1ccc2nc(NC(=S)N(C)C)sc2c1 24.8 µM
O=C(Nc1ccccc1)c1cc2ccccc2o1 1.24 µM
COc1ccc(-c2cc(=O)c3ccccc3s2)cc1 2.06 µM
Cc1ccc(-c2nc3cc(N)ccc3o2)cc1 2.17 µM
COc1ccc(N=C(C)C2=C(O)c3ccccc3C2=O)cc1 0.889 µM
O=C(O)c1ccc(/C=N/Nc2ccc(F)cc2F)cc1 1.23 µM
O=C(NC(=S)Nc1ccc2c(c1)OCO2)c1ccccc1 5.7 µM
CCOC(=O)c1nn(-c2ccc(Br)cc2)cc1C(=O)c1cccc2ccccc12 3 µM
COC(=O)c1ccc(-c2ccc(Cl)cc2)nc1C 4.44 µM
Oc1sc(C=Nc2ccccc2)c2ccccc12 10.5 µM
COc1ccc(-c2cn3ccsc3n2)cc1 12.5 µM
N#Cc1cccc(NCC(=O)Nc2ccc3c(c2)OCCO3)c1 6.6 µM
COC(=O)CSc1nc2cc(C)ccc2cc1C#N 6.53 µM
O=C(OCC(=O)c1c[nH]c2ccccc12)c1cccc(O)c1 14.6 µM
CN(C)c1ccc(C(=O)/C=C/c2ccco2)cc1 1.96 µM
O=C(O)c1cc(N/N=C/c2ccc3c(c2)OCCO3)ccc1Cl 26.5 µM
O=C(/C=C\Nc1cccc(F)c1)c1cccs1 0.347 µM
Cc1ccccc1-c1noc(-c2ccc(O)cc2)n1 6.21 µM
Cc1ccc(OCC(=O)Nc2ccccc2[N+](=O)[O-])c(Br)c1 9.49 µM
COc1ccccc1-c1nc(-c2ccc(Br)o2)no1 1.04 µM
O=C(Nc1ncc(Cc2ccccc2)s1)c1cccs1 1.08 µM
CCOC(=O)c1cnc(Nc2nc3ccccc3o2)nc1CSC(=S)N(CC)CC 2.32 µM
Cc1cccc(/C=C/c2nc3ccccc3c(=O)[nH]2)c1 0.829 µM
NC(=O)c1ccc(-c2ncc(-c3ccccc3)o2)cc1 0.403 µM
CC(=O)Oc1ccc(Cl)cc1/C=C/c1ccc2ccccc2n1 0.836 µM
Cc1ccc(-c2nc3cc(Cl)ccc3o2)cc1 1.75 µM
Cc1ccc(-c2noc(-c3ccccc3Br)n2)cc1 1.83 µM
CCCCc1ccc(-c2ccc(Br)cc2O)nc1 3.36 µM
Cc1ccc(/C=C/C(=O)NC2=NCCS2)cc1 4.32 µM
CC(C)CC(=O)Nc1ccc2nn(-c3ccccc3)nc2c1 5.7 µM
CN(C)c1ccc(NC(=O)Nc2cccc(Cl)c2)cc1 3.42 µM
CCOC(=O)c1c(N)sc(C(=O)Nc2ccc3c(c2)OCO3)c1C 0.871 µM
O=C(Nc1ccc2c(c1)OCCO2)NC1CCCCC1 18.2 µM
Nc1nc2ccc(-c3nc4ccccc4o3)cc2s1 1.39 µM
N#C/C(=N\Nc1ccccc1[N+](=O)[O-])C(=N)N1CCCCC1 6.94 µM
Fc1ccc(-c2nc3n(n2)Cc2ccccc2-3)cc1 0.125 µM
Cc1ccc(-n2cc3ccc([N+](=O)[O-])cc3n2)cc1 1.29 µM
COc1ccc(C(=O)/C=C/c2cn(CN3CCN(C)CC3)c3ccccc23)cc1 1.02 µM
O=C(Cc1cccs1)Nc1nc2c(s1)CCCC2 20.2 µM
CCOC(=O)C1CCN(Cc2ccc(O)c3ncccc23)CC1 2.51 µM
CC(=O)Nc1cccc(-c2csc(Nc3cccc(C)n3)n2)c1 1.63 µM
CCN(CC)c1ccc(C(=O)Nc2cccc(F)c2)cc1 1.06 µM
O=C(Nc1ccc2c(c1)CCC2)c1ccccc1F 1.8 µM
Oc1ccccc1-c1cc(-c2ccccc2Cl)[nH]n1 1.24 µM
Cc1ccc2nc(-c3ccc(NC(=O)COC(=O)c4ccc([N+](=O)[O-])o4)cc3)sc2c1 0.437 µM
Cc1ccc(C(=O)/C=C/Nc2ccccc2C(N)=O)cc1 0.511 µM
CCCCOC(=O)Nc1nc2ccccc2s1 3.47 µM
O=C(Nc1nc(-c2nc3ccccc3s2)cs1)C1CC1 15.6 µM
O=C(Nc1ccc2c(c1)OCCO2)c1ccc(Br)s1 0.609 µM
Cc1ccc(-c2nnc(-c3ccccc3)o2)cc1 3.44 µM
O=C(Nc1ccccc1O)c1ccc(NS(=O)(=O)c2cccc3cccnc23)cc1 21.9 µM
COc1ccc(-c2csc(Nc3ncccc3C)n2)cc1 1.65 µM
Cc1cccc(-n2ncc3c(NC4CCCCC4)ncnc32)c1 2.33 µM
Cc1cc(C)c2nc(NC(=O)C3CCCO3)sc2c1 (stereo not given) 18.6 µM
c1ccc2oc(-c3csc(NCC4CCCO4)n3)cc2c1 (stereo not given) 2.54 µM
Fc1ccc(-c2cnn3c(-c4ccncc4)ccnc23)cc1 1.24 µM
CCOc1ccc(-c2nc(-c3cccnc3)no2)cc1 0.906 µM
Cc1sc(NC(=O)c2ccc(Cl)s2)c(C(N)=O)c1C 1.7 µM
O=C(COc1ccc(CO)cc1Cl)Nc1ccc(F)cc1 1.6 µM
Cc1ccnc(NS(=O)(=O)c2ccc(NC(=O)c3ccc([N+](=O)[O-])s3)cc2)n1 5.77 µM
O=C(Nc1ccc(N2CCCCC2)cc1)c1ccccc1 0.978 µM
COc1cccc(NC(=O)Nc2ccc3c(c2)nc(C)n3C)c1 9.3 µM
COc1cccc(CNc2cnc3ccccc3c2)c1O 13.9 µM
Cc1cnc(C(=O)Nc2ccc3c(c2)CCC3)cn1 2.45 µM
N/C(=N\N=C\c1cccc(O)c1)c1nonc1N 3.31 µM
